These results are taken from patent US7163946B2 (Ligand Pharmaceuticals Incorporated, priority 2002, dated 2007).

The structures appear in SMILES notation. pEC50: −log10 of the molar value. Where two headings read alike, the source gives them in different places.

Broadly, the pEC50 is the EC50 on a negative log10 scale, so that one unit is a factor of ten. In general, EC50 refers to the concentration that produces a half-maximal response.

The target of one assay is T1, hPR (Homo sapiens, UniProt P06401).
T1 sequence (P06401 1-933): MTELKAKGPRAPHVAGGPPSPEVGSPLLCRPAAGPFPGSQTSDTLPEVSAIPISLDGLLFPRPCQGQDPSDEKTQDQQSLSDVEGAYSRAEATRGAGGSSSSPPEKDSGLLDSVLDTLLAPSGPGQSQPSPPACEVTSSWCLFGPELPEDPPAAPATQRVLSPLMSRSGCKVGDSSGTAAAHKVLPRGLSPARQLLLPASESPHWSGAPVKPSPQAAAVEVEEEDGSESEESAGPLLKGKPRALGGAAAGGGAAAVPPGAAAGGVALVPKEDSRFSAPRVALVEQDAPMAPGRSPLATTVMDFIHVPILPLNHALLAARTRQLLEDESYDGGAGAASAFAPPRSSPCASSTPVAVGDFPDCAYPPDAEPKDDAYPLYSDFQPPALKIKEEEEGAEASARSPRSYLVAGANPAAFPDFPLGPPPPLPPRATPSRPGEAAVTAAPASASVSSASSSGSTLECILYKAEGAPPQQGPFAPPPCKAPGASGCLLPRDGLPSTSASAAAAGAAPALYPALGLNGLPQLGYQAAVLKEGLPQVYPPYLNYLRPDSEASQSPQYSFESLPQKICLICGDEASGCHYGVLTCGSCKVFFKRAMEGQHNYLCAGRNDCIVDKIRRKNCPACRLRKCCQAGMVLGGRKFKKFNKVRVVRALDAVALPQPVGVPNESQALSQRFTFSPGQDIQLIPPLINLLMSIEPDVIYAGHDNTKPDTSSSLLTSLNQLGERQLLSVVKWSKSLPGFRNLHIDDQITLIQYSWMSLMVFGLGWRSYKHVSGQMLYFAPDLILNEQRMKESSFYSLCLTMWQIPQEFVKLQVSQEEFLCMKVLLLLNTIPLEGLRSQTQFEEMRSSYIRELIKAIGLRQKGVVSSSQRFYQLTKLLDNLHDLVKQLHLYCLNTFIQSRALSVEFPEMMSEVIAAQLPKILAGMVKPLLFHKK
As to the kind of experiment: hPR cotransfection assay in CV-1 cells, agonist mode. As to conditions: for Emax: CV-1, CV-1 cells, relative to maximal response of progesterone as 100%, read-out: hPR Agonist CV-1 Cells Eff. (%); for pEC50: CV-1 cells, read-out: hPR Agonist CV-1 Cells EC50; for EC50: Tables 3 and 4, values without footnote, read-out: hPR agonist potencies (EC50 in nM) in the cotransfection assay. It is filed as cell-based.

Another assay has as its target T2, hGR (Homo sapiens, UniProt P04150).
T2 sequence (P04150 1-777): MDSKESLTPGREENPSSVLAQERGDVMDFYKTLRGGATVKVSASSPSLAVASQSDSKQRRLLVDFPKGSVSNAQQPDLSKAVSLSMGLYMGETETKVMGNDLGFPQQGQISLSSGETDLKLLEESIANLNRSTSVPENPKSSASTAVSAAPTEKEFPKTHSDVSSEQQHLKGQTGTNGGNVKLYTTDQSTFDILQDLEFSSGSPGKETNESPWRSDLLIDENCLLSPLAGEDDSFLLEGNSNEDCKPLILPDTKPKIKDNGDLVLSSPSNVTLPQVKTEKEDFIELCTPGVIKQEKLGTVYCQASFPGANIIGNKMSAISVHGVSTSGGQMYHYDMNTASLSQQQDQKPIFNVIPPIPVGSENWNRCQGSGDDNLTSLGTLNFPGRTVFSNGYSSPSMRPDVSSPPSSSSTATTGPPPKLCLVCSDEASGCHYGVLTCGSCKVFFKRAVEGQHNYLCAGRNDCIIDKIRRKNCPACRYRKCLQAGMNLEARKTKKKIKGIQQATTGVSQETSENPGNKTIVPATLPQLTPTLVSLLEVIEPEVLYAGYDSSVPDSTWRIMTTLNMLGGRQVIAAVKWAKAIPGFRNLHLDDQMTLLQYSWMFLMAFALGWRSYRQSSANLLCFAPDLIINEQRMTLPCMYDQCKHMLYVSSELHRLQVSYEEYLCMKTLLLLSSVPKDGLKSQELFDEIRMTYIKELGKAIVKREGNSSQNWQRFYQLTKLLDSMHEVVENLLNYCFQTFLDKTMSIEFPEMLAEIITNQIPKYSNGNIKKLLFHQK
Nature of the assay: hGR cotransfection assay (potency ratio to hPR). It is filed as cell-based. Conditions: receptor-selectivity potency ratio, cotransfection assays.

In a further assay the test system is immature rabbits. Nature of the assay: McPhail (Clauberg) rabbit assay of progestational activity. It is filed as in vivo. Conditions: Oryctolagus cuniculus; estradiol-primed immature rabbits; glandular changes of the uterus; read-out: potency (MAD in mg/kg), minimum active dose. As for the experimental part:
The superiority of the 7,9-difluoro analogue compounds of the present invention was further characterized utilizing the McPhail rabbit model according to the following illustrative Examples. The Clauberg or McPhail assay is a classic assay utilizing rabbits to measure progestational activity. […] In this assay, immature rabbits are treated initially with estradiol, which induces growth in the uterus. This is followed by a progestin, which causes a large change in the glandular content of the uterus. It is this change in the glandular component which is a measure of the progestational activity of a progestin. The measurement of these glandular changes is carried out histologically using stained sections of the uterus. The in vivo comparison between the new 7,9-difluoro compounds and analogues with substitution patterns different from 7,9-difluoro (U.S. Pat. Nos. 5,693,646 and 5,696,127) is tabulated in Tables 7 and 8. The in vivo potency of the progestins is presented as the minimum active dose (MAD).

Assay [1] relates to ovariectomized female rats. Nature of the assay: Multi-endpoint adult rat model, uterus/breast tissue-selectivity. As to conditions: ratio of relative efficacy to MPA in uterus verse in breast tissue at the same highest dose tested; estrone-treated ovariectomized rats, three days. It counts as in vivo.

Procedure for hGR: Antagonist efficacy was determined as a function (%) of maximal inhibition of a reference agonist at EC50 concentration. All the cotransfection experiments were carried out in 96-well plates by automation (Beckman Biomomek automated workstation).

Consider `CC1=CC(C)(C)Nc2ccc3c(c21)/C(=C/Br)Oc1c(F)cc(F)cc1-3` [Compound 29, 7,9-difluoro-5(Z)-bromomethylidene-1,2-dihydro-2,2,4-trimethyl-5H-chromeno[3,4-f]quinoline], for which, at hPR, the Emax came out at 191% and the pEC50 was 8.64. For the same molecule, the “hGR EC50 or IC50/hPR EC50” value at hGR was 83.
On to `CC1=CC(C)(C)Nc2ccc3c(c21)/C(=C/c1ccccc1)Oc1c(F)cc(F)cc1-3` [Compound 10, 7,9-difluoro-5(Z)-benzylidene-1,2-dihydro-2,2,4-trimethyl-5H-chromeno[3,4-f]quinoline], for which, on hPR, the Emax amounted to 153%, the negative-log EC50 (pEC50) is 8.31 and the EC50 turned out to be 4.9 nM. For the same molecule, the “hGR EC50 or IC50/hPR EC50” value at hGR was determined as 290.
The corresponding values for `CC1=CC(C)(C)Nc2ccc3c(c21)C(c1ccc(Cl)c(C)c1)Oc1c(F)cc(F)cc1-3` (racemic) [Compound 37, (±)-7,9-difluoro-5-(4-chloro-3-methylphenyl)-1,2-dihydro-2,2,4-trimethyl-5H-chromeno[3,4-f]quinoline] are 89%, 8.91, 1.24 nM and 54.
`CC1=CC(C)(C)Nc2ccc3c(c21)C(c1cccc(Cl)c1)Oc1c(F)cc(F)cc1-3` (racemic) [Compound 41, (±)-7,9-difluoro-5-(3-chlorophenyl)-1,2-dihydro-2,2,4-trimethyl-5H-chromeno[3,4-f]quinoline]: on hPR, the Emax turned out to be 146%, the pEC50 is 8.73 and the EC50 is 1.87 nM. Further, the “hGR EC50 or IC50/hPR EC50” value on hGR stood at 105. Besides, the minimal effective dose in the assay with immature rabbits is 0.75 mg/kg.
On to `CC1=CC(C)(C)Nc2ccc3c(c21)C(c1cc2ccccc2s1)Oc1c(F)cc(F)cc1-3` (racemic) [Compound 63, (±)-7,9-difluoro-5-(benzo[b]thien-2-yl)-1,2-dihydro-2,2,4-trimethyl-5H-chromeno[3,4-f]quinoline], for which, at hPR, the Emax was 154% and the pEC50 was 8.64. At hGR, the “hGR EC50 or IC50/hPR EC50” value worked out at 8.8.
On to `CC1=CC(C)(C)Nc2ccc3c(c21)C(c1ccccc1)Oc1c(F)cc(F)cc1-3` (racemic) [Compound 33, (±)-7,9-difluoro-5-phenyl-1,2-dihydro-2,2,4-trimethyl-5H-chromeno[3,4-f]quinoline], for which, at hPR, the Emax stood at 85%, the pEC50 was 8.46 and the EC50 is 3.5 nM. In addition, the “hGR EC50 or IC50/hPR EC50” value on hGR was 10.
As for `CC1=CC(C)(C)Nc2ccc3c(c21)/C(=C/c1cccc(F)c1)Oc1c(F)cc(F)cc1-3` [Compound 15, 7,9-difluoro-5(Z)-(3-fluorobenzylidene)-1,2-dihydro-2,2,4-trimethyl-5H-chromeno[3,4-f]quinoline], on hPR, the Emax was 191%, the pEC50 is 8.42 and the EC50 was found to be 3.8 nM. The “hGR EC50 or IC50/hPR EC50” value on hGR worked out at 30. The minimal effective dose in the assay on immature rabbits stood at 0.18 mg/kg.
Regarding `COc1ccc(F)cc1/C=C1\Oc2c(F)cc(F)cc2-c2ccc3c(c21)C(C)=CC(C)(C)N3` [Compound 26, 7,9-difluoro-5(Z)-(2-methoxy-5-fluorobenzylidene)-1,2-dihydro-2,2,4-trimethyl-5H-chromeno[3,4-f]quinoline], at hPR, the Emax is 159%, the pEC50 was 9.22 and the EC50 came to 0.6 nM. For the same molecule, the “hGR EC50 or IC50/hPR EC50” value on hGR was determined as 342. Also, the minimal effective dose with immature rabbits stood at 2 mg/kg.
As for `CC1=CC(C)(C)Nc2ccc3c(c21)/C(=C/c1ccncc1C)Oc1c(F)cc(F)cc1-3` [Compound 20, 7,9-difluoro-5(Z)-(3-methyl-4-picolylidene)-1,2-dihydro-2,2,4-trimethyl-5H-chromeno[3,4-f]quinoline], at hPR, the Emax is 147%, the pEC50 is 8.55 and the EC50 came out at 2.8 nM. For the same molecule, the “hGR EC50 or IC50/hPR EC50” value at hGR was determined as 27. Moreover, the minimal effective dose with immature rabbits stood at 0.25 mg/kg.
As for `CC1=CC(C)(C)Nc2ccc3c(c21)/C(=C/c1ccncc1)Oc1c(F)cc(F)cc1-3` [Compound 14, 7,9-difluoro-5(Z)-(4-picolylidene)-1,2-dihydro-2,2,4-trimethyl-5H-chromeno[3,4-f]quinoline], on hPR, the Emax worked out at 103%, the pEC50 is 8.13 and the EC50 came to 7.4 nM. Also, at hGR, the “hGR EC50 or IC50/hPR EC50” value stood at 365.
Regarding `CC#CC1Oc2c(F)cc(F)cc2-c2ccc3c(c21)C(C)=CC(C)(C)N3` (racemic) [Compound 74, (±)-7,9-difluoro-5-(1-propynyl)-1,2-dihydro-2,2,4-trimethyl-5H-chromeno[3,4-f]quinoline], at hPR, the Emax was 89% and the pEC50 was 9.15. Further, the “hGR EC50 or IC50/hPR EC50” value on hGR was greater than 1000.
Take `CC1=CC(C)(C)Nc2ccc3c(c21)C(c1cccc(C)c1)Oc1c(F)cc(F)cc1-3` (racemic) [Compound 34, (±)-7,9-difluoro-5-(3-methylphenyl)-1,2-dihydro-2,2,4-trimethyl-5H-chromeno[3,4-f]quinoline]: on hPR, the Emax worked out at 114%, the pEC50 was 8.92 and the EC50 was 1.2 nM. For the same molecule, the “hGR EC50 or IC50/hPR EC50” value at hGR was greater than 1000. The minimal effective dose with immature rabbits came to 1 mg/kg.
On to `COc1ccccc1/C=C1\Oc2c(F)cc(F)cc2-c2ccc3c(c21)C(C)=CC(C)(C)N3` [Compound 18, 7,9-difluoro-5(Z)-(2-methoxybenzylidene)-1,2-dihydro-2,2,4-trimethyl-5H-chromeno[3,4-f]quinoline], for which, at hPR, the Emax worked out at 142%, the pEC50 is 8.89 and the EC50 was 1.3 nM. For the same molecule, the “hGR EC50 or IC50/hPR EC50” value at hGR is given as 77. Moreover, in the assay on immature rabbits, the minimal effective dose was 2 mg/kg.
As for `CC1=CC(C)(C)Nc2ccc3c(c21)/C(=C/c1cccs1)Oc1c(F)cc(F)cc1-3` [Compound 31, 7,9-difluoro-5(Z)-(2-thienylmethylidene)-1,2-dihydro-2,2,4-trimethyl-5H-chromeno[3,4-f]quinoline], at hPR, the Emax came to 171%, the pEC50 is 8.57 and the EC50 came out at 2.7 nM. For the same molecule, on hGR, the “hGR EC50 or IC50/hPR EC50” value stood at 59. Besides, the uterus/breast tissue-selectivity in assay [1] was 3.5.
As for `CC1=CC(C)(C)Nc2ccc3c(c21)/C(=C/c1ccsc1)Oc1c(F)cc(F)cc1-3` [Compound 30, 7,9-difluoro-5(Z)-(3-thienylmethylidene)-1,2-dihydro-2,2,4-trimethyl-5H-chromeno[3,4-f]quinoline], on hPR, the Emax is 186% and the pEC50 is 8.28. Moreover, the “hGR EC50 or IC50/hPR EC50” value on hGR is 19.
